# Source: patent US10683382B2, “Copolymer comprising a lignin or lignin derivative and a poly(alkylene oxide) alkyl ether (meth)acrylate, and a hydrogel comprising the copolymer” (AGENCY FOR SCIENCE, TECHNOLOGY AND RESEARCH, priority 2015, dated 2020)
# Tested on: human dermal fibroblasts
# Test: MTT assay, cell viability
# Type: cell-based
# Details: 1, 5, 10 μM; up to 72 hours
# Experimental: MTT assays were performed to assess the metabolic activity of human dermal fibroblasts. Human dermal fibroblasts were seeded in 96-well plates (Costar, USA) at a density of 1×10^4 cells/mL. After 24 hours of incubation, the medium was replaced by the Lig-PEG1, Lig-PEG2, Lig-PEG4, α-CD and P(PEGMA) (Mn=18 000 g/mol) aqueous solutions at concentrations of 10 μM, 5 μM and 1 μM, respectively. The cells were then incubated for 24 hours, 48 hours and 72 hours, respectively. After the designated time intervals, the wells were washed twice with 1×PBS buffer, and 100 μL of freshly prepared MTT (0.5 mg/mL) solution in culture medium was added to each well. The MTT medium solution was carefully removed after 3 hours incubation in the incubator. DMSO (100 μL) was then added into each well, and the plate was gently shaken for 10 minutes at room temperature to dissolve all precipitates formed. The absorbance of MTT at 570 nm was monitored by the microplate reader (Genios Tecan, Switzerland). Cell viability was expressed by the ratio of absorbance of the cells incubated with polymer solution to that of the cells incubated with culture medium only.
smiles,measurement,value
"OC[C@H]1O[C@@H]2O[C@H]3[C@H](O)[C@@H](O)[C@@H](O[C@H]4[C@H](O)[C@@H](O)[C@@H](O[C@H]5[C@H](O)[C@@H](O)[C@@H](O[C@H]6[C@H](O)[C@@H](O)[C@@H](O[C@H]7[C@H](O)[C@@H](O)[C@@H](O[C@H]1[C@H](O)[C@H]2O)O[C@@H]7CO)O[C@@H]6CO)O[C@@H]5CO)O[C@@H]4CO)O[C@@H]3CO [α-CD, α-cyclodextrin]",cytotoxicity,no cytotoxicity
